Data as given in patent US12514938B2, “Fibroblast activation protein targeting peptides” (PERSPECTIVE THERAPEUTICS, INC., priority 2023, dated 2026).
*1 amine or outer side, *2 acyl side, *3 side chain or, on linkers, in order; H or OH if unused. Where a SMILES comes first, the peptide text is derived from it. Bridges are numbered along the chain shown (N, C = ends). [ ]: non-standard residue; d: D form. The star is where a group is joined. X3 = NC(=O)CN1CCN(CC(=O)O)CCN(CC(=O)NCCOCCOCCC(=O)N[C@@H](Cc2ccccc2)C(=O)NC(CC(=O)[*:1])CC(=O)[*:2])CCN(CC(=O)O)CC1; X1 = NC(=O)CN1CCN(CC(=O)O)CCN(CC(=O)*)CCN(CC(=O)O)CC1; oXylylene = c1ccc(C[*:2])c(C[*:1])c1; Dap = NC[C@H](N)C(=O)O; PEG2 = NCCOCCOCCC(=O)O

Molecular target: T1, Human Fibroblast Activation Protein (FAP) (Homo sapiens, UniProt Q12884)
T1 sequence (Q12884 1-760): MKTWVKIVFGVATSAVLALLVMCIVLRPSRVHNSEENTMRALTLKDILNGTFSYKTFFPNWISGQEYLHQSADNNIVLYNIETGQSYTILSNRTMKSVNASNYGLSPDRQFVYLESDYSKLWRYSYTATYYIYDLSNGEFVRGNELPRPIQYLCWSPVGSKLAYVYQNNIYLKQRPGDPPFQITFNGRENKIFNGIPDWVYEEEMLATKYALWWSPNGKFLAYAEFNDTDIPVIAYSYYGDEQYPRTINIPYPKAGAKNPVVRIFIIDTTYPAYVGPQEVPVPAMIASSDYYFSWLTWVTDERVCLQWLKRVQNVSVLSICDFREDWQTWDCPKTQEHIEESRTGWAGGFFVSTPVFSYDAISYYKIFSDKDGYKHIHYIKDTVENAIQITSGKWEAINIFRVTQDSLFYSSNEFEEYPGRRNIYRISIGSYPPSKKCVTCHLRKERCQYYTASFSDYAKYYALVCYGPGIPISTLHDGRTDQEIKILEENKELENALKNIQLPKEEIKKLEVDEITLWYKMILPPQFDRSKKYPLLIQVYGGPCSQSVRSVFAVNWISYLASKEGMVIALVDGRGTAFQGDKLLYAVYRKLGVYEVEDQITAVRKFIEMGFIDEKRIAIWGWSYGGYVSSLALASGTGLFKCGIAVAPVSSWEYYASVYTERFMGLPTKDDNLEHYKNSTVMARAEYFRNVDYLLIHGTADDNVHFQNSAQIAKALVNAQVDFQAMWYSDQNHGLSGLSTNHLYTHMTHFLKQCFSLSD
Assay: Enzyme inhibition assay against human FAP (substrate Z-GP-AMC), Example 1
Assay type: biochemical
Settings: human FAP 5 ng/well, 50 μM Z-GP-AMC; Ki from IC50 by Cheng-Prusoff
Description: Binding Affinity Against Human Fibroblast Activation Protein (FAP)
An enzyme inhibition assay was performed to determine IC50 values and then the Cheng-Prusoff equation used to calculate the Ki given a known Km of the substrate Z-GP-AMC for FAP. To perform the assay, FAP (5 ng/well) and the test peptide at varying concentrations (i.e. 10^−6 to 10^−12) were incubated in a black 96-well plate for 10 minutes at RT on a shaker plate. Then, the substrate Z-GP-AMC was added to give a final concentration of 50 μM. The total reaction volume per well was 100 μL The reaction was allowed to incubate at RT on a shaker plate for 1 hour protected from light, and then fluorescence read with a BioTek Synergy LX plate reader at an ex/em (360/40 and 460/40). Experiments were performed in at least duplicate, and controls of buffer only, buffer and FAP enzyme, and buffer with substrate and FAP enzyme only were included for comparison. The buffer used for the assay was 50 mM Tris-HCl, 1M NaCl, and 1 mg/mL BSA, pH=7.5. Data was plotted in GraphPad Prism and non-linear regression used to calculate IC50 values. The compounds tested and Ki values of each were as follows: […]

Question: How did the Ki turn out when `CC(=O)N[C@@H](CO)C(=O)N[C@H]1CSCc2ccccc2CSC[C@@H](C(N)=O)NC(=O)[C@H](Cc2c[nH]c3ccccc23)NC(=O)[C@H](Cc2ccc(O)cc2)NC(=O)[C@H](CCC(N)=O)NC(=O)[C@H](CCC(=O)O)NC(=O)[C@H](Cc2ccccc2)NC(=O)[C@@H]2CCCN2C(=O)[C@H]([C@@H](C)O)NC1=O` [VMT-FAP-2-29, Ac-S[C(oXdB)TPFEQYWC]-NH2] (Ac-SCTPFEQYWC-NH2; linker 2-10 via oXylylene) was run?
Answer: Its Ki is 13600 pM.

Question: For `C[C@@H](O)[C@@H]1NC(=O)[C@@H](NC(=O)[C@H](CO)NC(=O)CCOCCOCCNC(=O)CN2CCN(CC(=O)O)CCN(CC(N)=O)CCN(CC(=O)O)CC2)CSCc2ccccc2CSC[C@@H](C(N)=O)NC(=O)[C@H](Cc2c[nH]c3ccccc23)NC(=O)[C@H](Cc2c[nH]c3ccccc23)NC(=O)[C@H](CCC(N)=O)NC(=O)[C@H](CCC(=O)O)NC(=O)[C@H](Cc2ccccc2)NC(=O)[C@@H]2CCCN2C1=O` [VMT-FAP-2-30, PSC-PEG2-S-[C(oXdB)TPFEQWWC]-NH2] ({X1-PEG2}-SCTPFEQWWC-NH2; linker 2-10 via oXylylene), which Ki is on record?
Answer: The Ki was 40 pM.

Question: With `CC(=O)N[C@@H](CO)C(=O)N[C@H]1CNC(=O)CC(NC(=O)[C@H](Cc2ccccc2)NC(=O)CCOCCOCCNC(=O)CN2CCN(CC(=O)O)CCN(CC(N)=O)CCN(CC(=O)O)CC2)CC(=O)NC[C@@H](C(N)=O)NC(=O)[C@H](Cc2c[nH]c3ccccc23)NC(=O)[C@H](Cc2c[nH]c3ccccc23)NC(=O)[C@H](CCC(N)=O)NC(=O)[C@H](CCC(=O)O)NC(=O)[C@H](Cc2ccccc2)NC(=O)[C@@H]2CCCN2C(=O)[C@H]([C@@H](C)O)NC1=O` (stereo partly drawn) [VMT-FAP-2-33, Ac-S-[Dap(bGlu(F-PEG2-PSC))TPFEQWWDap]-NH2] (Ac-S[Dap]TPFEQWW[Dap]-NH2; linker 2-10 via X3 (inferred)) as the molecule, how does the Ki read?
Answer: The Ki was 1260 pM.

Question: `C[C@@H](O)[C@@H]1NC(=O)[C@@H](NC(=O)CCOCCOCCNC(=O)CN2CCN(CC(=O)O)CCN(CC(N)=O)CCN(CC(=O)O)CC2)CSCc2ccccc2CSC[C@@H](C(N)=O)NC(=O)[C@H](Cc2c[nH]c3ccccc23)NC(=O)[C@H](Cc2c[nH]c3ccccc23)NC(=O)[C@H](CCC(N)=O)NC(=O)[C@H](CCC(=O)O)NC(=O)[C@H](Cc2ccccc2)NC(=O)[C@@H]2CCCN2C1=O` [VMT-FAP-2-36, PSC-PEG2-[C(oXdB)TPFEQWWC]-NH2] ({X1-PEG2}-CTPFEQWWC-NH2; linker 1-9 via oXylylene) was tested. Which Ki did it give?
Answer: Its Ki is 760 pM.

Question: Which Ki does the source give for `C[C@@H](O)[C@@H]1NC(=O)[C@@H](NC(=O)[C@H](CO)NC(=O)[C@H](Cc2ccccc2)NC(=O)CCOCCOCCNC(=O)CN2CCN(CC(=O)O)CCN(CC(N)=O)CCN(CC(=O)O)CC2)CSCc2ccccc2CSC[C@@H](C(N)=O)NC(=O)[C@H](Cc2c[nH]c3ccccc23)NC(=O)[C@H](Cc2c[nH]c3ccccc23)NC(=O)[C@H](CCC(N)=O)NC(=O)[C@H](CCC(=O)O)NC(=O)[C@H](Cc2ccccc2)NC(=O)[C@@H]2CCCN2C1=O` [VMT-FAP-2-39, PSC-PEG2-F-S-[C(oXdB)TPFEQWWC]-NH2] ({X1-PEG2}-FSCTPFEQWWC-NH2; linker 3-11 via oXylylene) here?
Answer: Its Ki is 670 pM.

Question: `CC(=O)N[C@H]1CSCc2ccccc2CSC[C@@H](C(N)=O)NC(=O)[C@H](Cc2c[nH]c3ccccc23)NC(=O)[C@H](Cc2c[nH]c3ccccc23)NC(=O)[C@H](CCC(N)=O)NC(=O)[C@H](CCC(=O)O)NC(=O)[C@H](Cc2ccccc2)NC(=O)[C@@H]2CCCN2C(=O)[C@H]([C@@H](C)O)NC1=O` [VMT-FAP-2-40, Ac-[C(oXdB)TPFEQWWC]-NH2] (Ac-CTPFEQWWC-NH2; linker 1-9 via oXylylene) was tested. Which Ki did it give?
Answer: Its Ki is 1270 pM.

Question: With `C[C@@H](O)[C@@H]1NC(=O)[C@@H](NC(=O)[C@H](CC(=O)O)NC(=O)CCOCCOCCNC(=O)CN2CCN(CC(=O)O)CCN(CC(N)=O)CCN(CC(=O)O)CC2)CSCc2ccccc2CSC[C@@H](C(N)=O)NC(=O)[C@H](Cc2c[nH]c3ccccc23)NC(=O)[C@H](Cc2c[nH]c3ccccc23)NC(=O)[C@H](CCC(N)=O)NC(=O)[C@H](CCC(=O)O)NC(=O)[C@H](Cc2ccccc2)NC(=O)[C@@H]2CCCN2C1=O` [VMT-FAP-2-41, PSC-PEG2-D-[C(oXdB)TPFEQWWC]-NH2] ({X1-PEG2}-DCTPFEQWWC-NH2; linker 2-10 via oXylylene) as the molecule, how does the Ki read?
Answer: The Ki was 190 pM.
